Test results from patent US12674148B2, “Cell-based reporter assay for screening inhibitors of coronavirus RNA-dependent RNA polymerase activity” (priority 2020, dated 2026).
Entries after “also recorded” stand apart in the source; their conditions may differ.

Assays:
[1] = biological target: MERS-CoV RdRp (Middle East respiratory syndrome-related coronavirus, UniProt K9N7C7); experiment: cell-based; settings: for inhibition at 100 µM: read-out: inhibition / reduction of MERS-CoV RdRp activity
[2] = system: HEK293T cells; experiment: cytotoxicity / cell viability (CellTiter 96 AQueous One Solution)
[3] = HEK-293T, read-out: MERS-CoV RdRp activity (%)

Chain of MERS-CoV RdRp (K9N7C7 4378-5310 limits assumed): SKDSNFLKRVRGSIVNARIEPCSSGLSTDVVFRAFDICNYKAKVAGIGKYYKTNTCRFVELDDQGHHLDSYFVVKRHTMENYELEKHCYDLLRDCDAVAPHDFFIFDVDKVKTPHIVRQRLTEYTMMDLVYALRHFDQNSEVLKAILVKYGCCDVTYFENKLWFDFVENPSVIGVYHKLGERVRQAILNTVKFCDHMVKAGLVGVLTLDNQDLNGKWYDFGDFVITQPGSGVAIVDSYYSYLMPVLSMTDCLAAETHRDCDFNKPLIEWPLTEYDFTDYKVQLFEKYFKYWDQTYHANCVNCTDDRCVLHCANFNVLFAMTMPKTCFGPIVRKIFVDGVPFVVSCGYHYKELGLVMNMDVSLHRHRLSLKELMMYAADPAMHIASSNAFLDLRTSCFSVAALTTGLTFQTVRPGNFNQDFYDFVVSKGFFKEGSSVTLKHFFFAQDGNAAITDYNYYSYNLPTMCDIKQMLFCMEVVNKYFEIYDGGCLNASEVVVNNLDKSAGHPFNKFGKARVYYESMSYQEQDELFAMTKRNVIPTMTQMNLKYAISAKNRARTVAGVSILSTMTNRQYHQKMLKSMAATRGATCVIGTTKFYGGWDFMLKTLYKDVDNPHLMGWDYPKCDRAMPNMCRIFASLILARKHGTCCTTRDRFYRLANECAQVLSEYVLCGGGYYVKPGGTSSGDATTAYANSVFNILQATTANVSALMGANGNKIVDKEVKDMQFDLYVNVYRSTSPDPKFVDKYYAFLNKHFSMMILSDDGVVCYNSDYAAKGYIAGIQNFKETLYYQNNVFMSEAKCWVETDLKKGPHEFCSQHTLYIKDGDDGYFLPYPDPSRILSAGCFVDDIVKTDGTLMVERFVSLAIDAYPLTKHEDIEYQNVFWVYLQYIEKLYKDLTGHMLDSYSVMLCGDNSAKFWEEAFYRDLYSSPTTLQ

| SMILES | activity at 100 µM [1, 3] | effect on MERS-CoV RdRp activity (in words) [1] | inhibition at 100 µM ([1]; HEK-293T) | also measured |
| --- | --- | --- | --- | --- |
| Nc1ccn([C@@H]2CS[C@H](CO)O2)c(=O)n1 [lamivudine] | 98.3 ± 1.2% | – | – | – |
| Nc1ncnc2c1ncn2[C@@H]1O[C@H](CO)[C@@H](O)[C@@H]1O [vidarabine] | 89.9 ± 2.9% | did not reduce; also recorded: did not affect the NLuc/FLuc ratio or MERS-CoV RdRp activity; also recorded: no significant effect | – | FLuc activity (internal control) [1]: reduced in a concentration-dependent manner; NLuc activity [1]: reduced in a concentration-dependent manner; cytotoxicity ([2]; concentration not stated (tested up to 100 μM)): did not show cytotoxicity |
| NC(=O)c1ncn([C@@H]2O[C@H](CO)[C@@H](O)[C@H]2O)n1 [ribavirin] | 60.3 ± 2.9% | no significant effect | ~40% | – |
| COc1c(-c2ccc3cc(NS(C)(=O)=O)ccc3c2)cc(-n2ccc(=O)[nH]c2=O)cc1C(C)(C)C [dasabuvir] | – | significantly inhibited, but not completely inhibited | – | IC50 [1]: 11.6 µM; reduction of MERS-CoV RdRp activity [1]: about 50%; activity at 10 µM [1, 3]: 51.5 ± 4.2%; cytotoxicity ([2]; HEK293T cells, 10 μM, 18 hours): no cytotoxicity was observed; concentration at which cytotoxicity was reduced by half ([2]; HEK293T cells, 18 hours): 27.143 µM; cytotoxicity ([2]; HEK293T cells, concentration exceeding 10 μM, 18 hours): cytotoxicity was observed |
| NC(=O)c1nc(F)c[nH]c1=O [favipiravir] | 85.8 ± 2.4% | no significant effect | ~10% | – |
| CCC(CC)COC(=O)[C@H](C)N[P@](=O)(OC[C@H]1O[C@@](C#N)(c2ccc3c(N)ncnn23)[C@H](O)[C@@H]1O)Oc1ccccc1 [remdesivir] | – | – | – | IC50 [1]: 5.028 ± 0.035 µM; activity at 12 µM [1, 3]: 22.3 ± 0.3%; cytotoxicity ([2]; HEK293T cells, 12 μM): no cytotoxicity was observed |
| Cc1cn([C@H]2C[C@H](N=[N+]=[N-])[C@@H](CO)O2)c(=O)[nH]c1=O [zidovudine] | 111 ± 3.7% | did not reduce; also recorded: no significant effect | – | – |
| CC(C)[C@H](N)C(=O)OCCOCn1cnc2c(=O)[nH]c(N)nc21 [valacyclovir] | 90.2 ± 3.2% | did not reduce; also recorded: no significant effect | – | – |
| CC(C)OC(=O)[C@H](C)N[P@](=O)(OC[C@H]1O[C@@H](n2ccc(=O)[nH]c2=O)[C@](C)(F)[C@@H]1O)Oc1ccccc1 [sofosbuvir] | 62.4 ± 5.3% | no significant effect | ~40% | – |
